The results in this text go back to US7189680B2, “5-halo-6-aryl[1,2,4]triazolo[1,5-a]pyrimidin-7-amines” (Bayer Cropscience AG, priority 2001, dated 2007).

One data set in a line: logP determination by HPLC (EEC directive 79/831 Annex V. A8). The note with it: HPLC gradient method, acetonitrile/0.1% aqueous phosphoric acid; Table 1. Type of data set: physicochemical. The protocol: *) The logP values were determined in accordance with EEC directive 79/831 Annex V. A8 by HPLC (gradient method, acetonitrile/0.1% aqueous phosphoric acid)
Regarding `Fc1cc(F)c(-c2c(Cl)nc3ncnn3c2NNCC(F)(F)C(F)F)c(F)c1` [Example 29], the “logP*” value is 2.58.
Consider `C=CCONc1c(-c2c(F)cccc2F)c(Cl)nc2ncnn12` [Example 50], for which the “logP*” value was 2.28.
For `CCC(C)ONc1c(-c2c(F)c(F)c(F)c(F)c2F)c(Cl)nc2ncnn12` (centres unmarked) [Example 73], the “logP*” value was determined as 3.33.
Consider `CCCCONc1c(-c2ccccc2F)c(Cl)nc2ncnn12` [Example 100], for which the “logP*” value was 2.85.
In the case of `CC(C)(C)ONc1c(-c2c(F)c(F)c(F)c(F)c2F)c(Cl)nc2ncnn12` [Example 75], the “logP*” value came out at 3.24.
As to `CC(C)(C)ONc1c(-c2c(F)cc(F)cc2F)c(Cl)nc2ncnn12` [Example 43], the “logP*” value is reported as 2.75.
Turning to `Fc1c(F)c(F)c(-c2c(Cl)nc3ncnn3c2NOC2CCCCO2)c(F)c1F` (centres unmarked) [Example 76], the “logP*” value was determined as 3.04.
`COCCN(N)c1c(-c2c(F)cc(F)cc2F)c(Cl)nc2ncnn12` [Example 128]: the “logP*” value is 2.26.
`CCCCN(N)c1c(-c2c(F)cc(F)cc2F)c(Cl)nc2ncnn12` [Example 132]: the “logP*” value is 2.96.
`Fc1ccccc1-c1c(Cl)nc2ncnn2c1NOCc1cc(Cl)cc(Cl)c1` [Example 96]: the “logP*” value was 3.69.
With `Fc1cc(F)c(-c2c(Cl)nc3ncnn3c2NOCc2ccc(C(F)(F)F)cc2)c(F)c1` [Example 10], the “logP*” value was found to be 3.38.
The same measure, in the same setting: then `Fc1cccc(F)c1-c1c(Cl)nc2ncnn2c1NOCc1ccccc1Cl` [Example 106], with 3.07.
Take `CNN(C)c1c(-c2c(F)cc(F)cc2F)c(Cl)nc2ncnn12` [Example 18]: the “logP*” value is reported as 2.33.
Regarding `CC(C)CCNNc1c(-c2c(F)cc(F)cc2F)c(Cl)nc2ncnn12` [Example 78], the “logP*” value amounted to 3.25.
Same read-out and setting: to `CCN(N)c1c(-c2c(F)cc(F)cc2F)c(Cl)nc2ncnn12` [Example 17] belongs 2.27; to `CON(C)c1c(-c2c(F)cccc2F)c(Cl)nc2ncnn12` [Example 28], 2.43; to `C#CCN(N)c1c(-c2c(F)cc(F)cc2F)c(Cl)nc2ncnn12` [Example 142], 2.22.
As for `CC(C)CN(N)c1c(-c2c(F)cc(F)cc2F)c(Cl)nc2ncnn12` [Example 131], the “logP*” value turned out to be 2.91.
On the same count and under the same terms, then `CCC(C)ONc1c(-c2ccccc2F)c(Cl)nc2ncnn12` (centres unmarked) [Example 63], with 2.69; and `Fc1cc(F)c(-c2c(Cl)nc3ncnn3c2NOCc2cccc(Cl)c2)c(F)c1` [Example 82], with 3.27; and `Fc1ccc(CONc2c(-c3c(F)cccc3F)c(Cl)nc3ncnn23)cc1` [Example 107], with 2.86.
For the molecule `NN(CC1CC1)c1c(-c2c(F)cccc2Cl)c(Cl)nc2ncnn12` [Example 162], the “logP*” value amounted to 2.63.
Regarding `NN(c1c(-c2c(F)cc(F)cc2F)c(Cl)nc2ncnn12)C1CCCC1` [Example 130], the “logP*” value is given as 3.07.
In the case of `CCCCNNc1c(-c2ccccc2F)c(Cl)nc2ncnn12` [Example 90], the “logP*” value is recorded as 2.77.
The same measure, in the same setting: to `C=CCONc1c(-c2c(F)cc(F)cc2F)c(Cl)nc2ncnn12` [Example 42] belongs 2.48.
For `Fc1ccccc1-c1c(Cl)nc2ncnn2c1NOCc1ccccc1` [Example 95], the “logP*” value came out at 2.83.

Still in this data set, the particulars now being: HPLC gradient method, acetonitrile/0.1% aqueous phosphoric acid; Table 1; read-out: logP*.
With `NN(CC1CCCCC1)c1c(-c2c(F)cc(F)cc2F)c(Cl)nc2ncnn12` [Example 22], the chromatographic logP was found to be 3.67.

Still in this data set, the particulars now being: HPLC; preparation examples; read-out: HPLC: logP.
Consider `C[C@H](N(SC(F)(Cl)Cl)c1c(-c2c(F)cc(F)cc2F)c(Cl)nc2ncnn12)C(F)(F)F` [Example 3, 5-chloro-7-{{[dichloro(fluoro)methyl]sulphanyl}[(1S)-2,2,2-trifluoro-1-methylethyl]amino}-6-(2,4,6-trifluorophenyl)[1,2,4]triazolo[1,5-a]pyrimidine], for which the chromatographic logP came to 4.74.
Regarding `CC(C)(C)ONc1c(-c2c(F)cccc2F)c(Cl)nc2ncnn12` [Example 2, 7-(tert-butoxyamino)-5-chloro-6-(2,6-difluorophenyl)[1,2,4)triazolo[1,5-a]pyrimidine], the chromatographic logP was determined as 2.59.
